87 compounds from a melting point compilation (Tetko et al.; mined from patent text by program, amines drawn as free bases though some values may be those of a salt) can be followed below.

`COc1cc(OC)nc(Oc2ccc3[nH]c(C)cc3c2C(=O)OCc2ccccc2)n1`: the melting point (as a rule, the temperature, or range, at which the solid turns liquid) lay within 135 to 139 °C.
Then `Cc1ccc(S(=O)(=O)OCCN(CCOS(=O)(=O)c2ccc(C)cc2)Sc2ccccc2[N+](=O)[O-])cc1`, with 91 to 93 °C; and `O=C1NCC(CN2CCN(c3cccc(C(F)(F)F)c3)CC2)O1` (configuration not stated), with 122 to 124 °C; and `Cc1ccc2c(c1)c(N1CCN(C(=O)c3cccs3)CC1)c(C#N)c(=O)n2C`, with 214 °C.
`O=C1CSCN1CCCCN1CCN(c2ccc3ccccc3n2)CC1` showed a melting point of 105 to 107 °C.
To `Nc1nc2n(c(=O)c1N=O)CCN2Cc1ccc(Cl)cc1` belongs 273 to 275 °C; to `CCCCc1cn(-c2cccn2CC)c(=O)n1Cc1ccc(-c2ccccc2-c2nnn[nH]2)nc1`, 174 to 175 °C.
Consider `COc1ccc(-c2ccc(F)cc2F)cc1`, for which the melting point fell in the range of 73 to 76 °C.
To `COCCN1CCC(O)(c2cccc(Cl)c2Cl)CC1` belongs 135 to 137 °C; to `Cc1c(SCCCSc2ccc3ncc([N+](=O)[O-])n3n2)ccnc1C(S)c1nc2cc(S(C)(=O)=O)ccc2[nH]1` (configuration not stated), 155 to 156 °C.
To `CSc1c(F)ccc2onc(OCCNC(=O)OC(C)(C)C)c12` belongs 91 to 92 °C.
To `NC(=Nc1cccc(CNCCC(=O)Nc2ccc3c(c2)CCN3Cc2cccc3ccccc23)c1)c1cccs1` belongs 185 to 187 °C; to `Cc1ccc(N)cc1C(=O)O`, 142 to 144 °C; to `C=CCOc1ccc(COc2ccc(CC(=O)O)cc2Cl)cc1`, 106 to 107 °C.
In turn, `CCC(O)(CC)C1(c2onc(-c3ccc(O)cc3)c2-c2ccccc2)CC1` yielded a melting point of 118 to 119 °C.
Regarding `O=C1Nc2ccccc2SC1CCCCCl` (configuration not stated), the melting point fell in the range of 111 to 112 °C.
`CNC(=O)c1ccc(N2CCN(Cc3cnc4c(c3)[nH]c(=O)n3cccc43)CC2)c(C)c1` showed a melting point of 264 to 266 °C.
To `CC1(C)CCC(C)(C)c2cc(C#Cc3ccc(CO)cc3)ccc21` belongs 115 to 117 °C.
Then `Cc1[nH]c(=O)[nH]c1C(N)=O`, with greater than 300 °C; and `COc1ccc(C[C@H]2NC(=O)O[C@H]2c2ccc(F)cc2)cc1` (racemic), with 125 to 126 °C; and `CC(C)=CC(=O)On1cc(Cl)cn1`, with 71 °C.
To `CCCCN(c1cccc(-c2ccnc3c([N+](=O)[O-])cnn23)c1)S(C)(=O)=O` belongs 153 to 155 °C; to `O=[N+]([O-])c1cc(C2=Nc3ccccc3SC2)cc(O)c1O`, 302 to 304 °C.
For the compound `FC(F)(F)C1(C(F)(F)F)c2ccccc2Oc2ccccc21`, the melting point was in the range of 74 to 75 °C.
To `CN1CCCC1=Cc1ccc(Cl)cc1` belongs 63 °C.
`CC#CCOc1ccc(C=O)cc1OC` displayed a melting point of 90 to 92 °C.
Then `COc1ccc2ccccc2c1-c1c(C)c2c(c(C)c1P(=O)(c1ccccc1)c1ccccc1)COC2`, with 105 to 107 °C; and `CCNc1nc(Cl)c(Cl)c(N2CCN(CC[C@H]3CC[C@H](NC(=O)OC(C)(C)C)CC3)CC2)n1`, with 197 to 199 °C; and `CCOC(=O)c1[nH]c2cc(Cl)cc(Cl)c2c1NCCC(=O)c1ccc(C(F)(F)F)cc1`, with 232 to 234 °C.
To `NC(=NO)C1CCc2ccccc2CC1` belongs 219 °C.
Then `C#CCCCn1ncc2c(N)c(C(=O)OCC=C)c(C)nc21`, with 99.5 °C.
Regarding `O=C(c1ccc(C2CCCCC2)cc1)N1Cc2cccn2Cc2ccccc21`, the melting point lay within 127 to 129 °C.
Then `CC(C)(C)c1cc(Cl)cc(CO[C@H]2CCCN(Cc3nc(=O)[nH][nH]3)[C@H]2c2ccccc2)c1`, with 181 to 182 °C.
In turn, `Cc1c(C)n(Cc2ccccc2)c(=O)n(CCCCl)c1=O` had a melting point of 72 to 74 °C.
For `CCc1cc(C(=O)OC)c(Nc2ccc(OC)cc2[N+](=O)[O-])s1`, the melting point lay in the range of 125 to 127 °C.
To `O=C(NCCO)c1ccc([N+](=O)[O-])cc1` belongs 134 to 135 °C.
Turning to `CC(C)CCOc1cccc2c1C(=O)CC(c1nnn[nH]1)O2` (configuration not stated), the melting point is 134 to 137 °C.
Compound `CN1CCN(c2nc3sc4c(NCCN5CCOCC5)ncnc4c3c3c2CCC(C)(C)C3)CC1` displayed a melting point of 150 to 151 °C.
The compound `CCOc1ccc(S(=O)(=O)N(CC(=O)NN=C2C(=O)Nc3ccccc32)c2ccccc2)cc1` showed a melting point of 136 °C.
To `CC(=O)OCCN1C(=O)CN2CCOC2(c2ccccc2F)c2cc(Cl)ccc21` (configuration not stated) belongs 120 to 123 °C; to `CC1(C)CCC(C)(C)c2cc(-c3cc(-c4ccc(C(=O)O)cc4)ccc3C(=O)O)ccc21`, 343 °C; to `CCOc1ccc(C2=NC[C@@H](O)[C@H](c3ccccc3)O2)cc1` (racemic), 124 °C.
To `O=c1oc2ccccc2c(O)c1C1CC(c2ccc(Cc3ccc(-c4ccccc4)cc3)cc2)Cc2ccccc21` (configuration not stated) belongs 118 to 121 °C.
Then `Cc1cc(C=O)cc(C)c1N`, with 75 to 76 °C; and `O=C(NN=Cc1ccc2ccccc2n1)c1ccccc1`, with 171 °C.
Take `CC(C)c1nc(C(O)(C(F)(F)F)C(F)(F)F)[nH]c1-c1ccc([N+](=O)[O-])cc1`: the melting point fell in the range of 157 to 160 °C.
Then `Cn1ncc2nn(-c3cc(C(F)(F)F)ccc3F)c(=O)cc21`, with 190 to 195 °C; and `O=c1c(Cl)c2sc3ccccc3nc-2c2ccccc12`, with 230 to 231 °C; and `CCOC(=O)C(C)(NC(=O)CNC=O)C(=O)OCC`, with 98 to 99 °C.
`CN1C(=O)C2(COc3cc4c(cc32)OCCO4)c2c(NC(=O)C3CCCC3)cccc21` (configuration not stated): the melting point lay in the range of 196 to 198 °C.
In the case of `COc1ccc(S(=O)(=O)n2ccc3ccnc(-c4ccc(C(F)(F)F)cc4)c32)cc1`, the melting point is 143 to 145 °C.
Then `N#Cc1c(O)[nH]c2cccnc12`, with greater than 250 °C; and `CC1(CC(O)(Cc2ccc(Cl)cc2Cl)c2cccnc2)OCCO1` (configuration not stated), with 136 to 137 °C.
In the case of `CCOC(=O)O[C@H](c1ccc(S(C)(=O)=O)cc1)[C@@H](CF)NC(=O)C(Cl)Cl`, the melting point lay within 110 to 112 °C.
To `O=C(NCCCCN1CCCC1)Nc1snc(OCc2c(F)cc(Br)cc2F)c1C(=O)O` belongs 208 °C; to `CC(C)(C)c1cc(C=O)cc(Br)c1O`, 126 °C.
Then `Cc1cc2[nH]c(=O)c(=O)[nH]c2cc1C`, with greater than 250 °C.
`CCOc1ccc(-c2nc(C3=CCN(C)CC3)cs2)cc1OCC` gave a melting point of 81.2 to 83.6 °C.
To `CCCCCCCCc1ccc(C(=O)C(O)c2ccccc2)cc1` (configuration not stated) belongs 65 to 70 °C.
Then `NC(=O)c1ncccc1OCCNCc1ccccc1`, with 110 to 112 °C; and `Cc1cc(C)c(C(=O)P(=O)(c2ccccc2)c2ccccc2)c(C)c1Cl`, with 125 to 126 °C.
In turn, `Cc1ccc(C(=O)OC2CCN(Cc3ccccc3[N+](=O)[O-])CC2)cc1` had a melting point of 86 to 87 °C.
To `CCOC(=O)C(C#N)C(=O)c1nn(-c2ccccc2)c2c1COc1ccccc1-2` (configuration not stated) belongs 176 to 178 °C; to `O=C(NCC12CC3CC(CC(C3)C1)C2)c1cc(-c2ccccc2C(=O)O)ncc1Cl`, 134 to 138 °C.
Then `CC(O)CCNC(=O)C1CCC(Nc2nccc(-n3ncc4ccccc43)n2)CC1` (configuration not stated), with 203 to 204 °C.
Then `COc1cc2c(Cl)c(C#N)cnc2cc1NC(C)=O`, with 230 to 235 °C; and `CCCOc1ccc2c(c1)C(c1ccc(OC)cc1OCC(=O)O)C(C(=O)O)C2c1cc2c(cc1OC)OCO2` (configuration not stated), with 188 to 190 °C.
`CC1(C2CCCC2)Cc2cc(OCC(=O)O)c(Cl)c(Cl)c2C1=O` (configuration not stated) showed a melting point of 113 to 114 °C.
To `O=S(=O)(Nc1ccccc1NCCOc1ccc(Cl)cc1)c1ccc(Cl)cc1` belongs 158 °C.
To `COC(=O)c1ccc(Cc2c[nH]c3ccc(C#N)cc23)c(OC)c1` belongs 148 to 149 °C; to `Cc1c(CO)cccc1NC(=O)CC12CC3CC(CC(C3)C1)C2`, 205 to 206 °C; to `O=C(NCCCCCOc1ccc(-n2ccnc2)cc1)c1ccc(Br)cc1`, 150 to 151 °C.
Then `Cc1cc(-c2nc3cccnn3c2-c2ccnc(NC(=O)NC3CC3)c2)ccc1F`, with 222 to 223 °C.
The compound `CCOC(=O)C1=CNC(COCCN)=C(C(=O)OC)C1c1cccc(Cl)c1Cl` (configuration not stated) returned a melting point of 131 to 132 °C.
In turn, `c1ccc(N2CCN(Cc3coc4ccccc34)CC2)cc1` showed a melting point of 103 to 105 °C.
Then `CCOC(CNc1nncs1)OCC`, with 108 to 112 °C; and `COc1cc(Nc2nc3cccc(-c4cccc(NC(C)=O)c4)c3o2)cc(OC)c1OC`, with 170 to 172 °C.
On to `O=C1CC2C(CC(OC(=O)c3ccccc3)C2C=CC(O)C2(F)CCCC2)O1` (configuration not stated), for which the melting point was in the range of 73 to 74 °C.
To `Oc1ccc(-c2cccc(OC3SCC(O)C(O)C3O)c2)cn1` (configuration not stated) belongs 200 °C.
Then `COc1ccc(OC)c2c1C(=O)c1c(O)c3c(c(O)c1C2=O)CC(=O)CC3`, with 173 to 174 °C.
Compound `CCCCc1oc2ccc(C(=O)OC(C)C)cc2c1C(=O)c1ccc(OS(=O)(=O)C(F)(F)F)cc1` registered a melting point of 100 to 101 °C.
Then `CNC(=O)C1CCNc2ccccc21` (configuration not stated), with 107 °C.
Then `O=C(O)c1ccccc1Sc1ccc(F)cc1[N+](=O)[O-]`, with 167 to 168 °C.
In the case of `CCOC(=O)Cc1ccc(-c2nc(COc3ccc(COc4nn(-c5ccccc5)cc4/C=C\c4csc(C(C)C)n4)cc3OC)c(C)o2)cc1`, the melting point lay within 89 to 90 °C.
Then `COCCC(=O)OC[C@@H](O)[C@@H]1CC(c2ccc(-c3ccc(N4C[C@H](Cn5ccnn5)OC4=O)cc3F)cn2)=NO1`, with 130 °C; and `O=C(Cc1cccc(Oc2ccccc2)c1)Nc1cc(Cl)c(Cl)cc1[N+](=O)[O-]`, with 135 to 137 °C; and `O=C(Nc1ccc(F)cc1)Nc1cccc(OCc2ccccc2)c1`, with 187 to 189 °C.
